# Assay results published in PubChem BioAssay AID1996.
# Conditions: buffer; pH 7.4; 200.0 µM
row,solubility kinetic,SMILES
1,3.7 µg/mL,COc1cc(C#N)ccc1OCC(=O)NCCC1=CCCCC1
2,3.9 µg/mL,COc1ccc(NC(=O)CN2CCN(c3c(C)cc(C)cc3C)CC2)cc1
3,11.2 µg/mL,Cc1cc(NC(=O)COc2ccccc2C#N)no1
4,52.9 µg/mL,CN(C(=O)C1CCN(S(=O)(=O)c2ccccc2[N+](=O)[O-])CC1)C1CCCCC1
5,6.3 µg/mL,COc1ccc(C(=O)NC2CCSc3ccccc32)cc1 (centres undefined)
6,> 45.2 µg/mL,Cc1cccc(C(=O)Nc2sc3c(c2C(=O)O)CCC3)c1
7,> 35 µg/mL,CCC1CC(C(=O)Nc2ccccc2)C(=O)O1 (centres undefined)
8,13.7 µg/mL,CN(CC(=O)Nc1ccc(Cl)c(C(F)(F)F)c1)C(=O)c1cnccn1
9,1.2 µg/mL,N/C(=N\OC(=O)CCC1CCCC1)c1ccc(Cl)cc1
10,> 50.6 µg/mL,CCOC(=O)c1ccc(NC(=S)N2CCN(CCO)CC2)cc1
11,39.7 µg/mL,CCc1ccc(C(=O)Nc2ccc(C)c(NS(C)(=O)=O)c2)cc1
12,19.5 µg/mL,CN(C(=O)c1cccc(C(F)(F)F)c1)C1CCCc2ccccc21 (centres undefined)
13,4.5 µg/mL,O=C(CC1CC2CCC1C2)NC1CCCCCCC1 (centres undefined)
14,43.7 µg/mL,Cc1cccnc1NC(=O)c1ccc(OCc2c(C)noc2C)cc1
15,> 55.3 µg/mL,Cc1ccc(S(=O)(=O)NCC(=O)OCC(=O)NC2CCCCC2)cc1
16,> 56.5 µg/mL,O=C(COC(=O)Cc1c[nH]c2ccccc12)Nc1ccccc1C(F)(F)F
17,> 46.1 µg/mL,CSc1sc(C(=O)N(C)C)cc1S(=O)(=O)C(C)C
18,13.4 µg/mL,CC(=O)c1c(C)c(C)c2n1CCn1c(C)ccc1-2
19,> 50.8 µg/mL,CCc1ccccc1NC(=O)CN(C1CCCCC1)S(C)(=O)=O

row,solubility kinetic,SMILES
1,1.4 µg/mL,CCOC(=O)c1c(SC)[nH]c2c(Cl)cccc2c1=O
2,> 31.1 µg/mL,CC(NC(=O)c1ccccc1F)C1CC1 (centres undefined)
3,15.9 µg/mL,CCCNC(=O)COC(=O)c1ccc(N2CCCC2)c([N+](=O)[O-])c1
4,> 32.6 µg/mL,Cc1c(C)n(CCC(=O)O)c2ccccc12
5,> 48.5 µg/mL,CCOC(=O)c1nc(Nc2ccc(OC)cc2)c2ccccc2n1
6,5.4 µg/mL,COc1ccc(C(=O)NC2CCN(C(=O)NCc3ccccc3)CC2)cc1
7,> 46.7 µg/mL,COc1ccc(C(=O)OCC(=O)NCC2CCCO2)c(F)c1 (centres undefined)
8,3.3 µg/mL,COc1ccc(NC(=O)CN2C(=O)COc3ccc(C)cc32)cc1
9,> 47.9 µg/mL,COc1ccc(/C=C/C(=O)OCC(=O)N2CCCC2)c(OC)c1
10,45.7 µg/mL,Cc1cc(C(=O)COC(=O)C(C)NC(N)=O)c(C)n1Cc1ccco1 (centres undefined)
11,5.4 µg/mL,COc1ccc(CNC(=O)COC(=O)c2cc3ccccc3o2)cc1
12,> 43.9 µg/mL,CC(=O)C1=NOC2C(=O)N(c3ccc(Cl)cc3)C(=O)C12 (centres undefined)
13,17.5 µg/mL,O=C(COC(=O)Cc1ccccc1F)NCc1ccc(Cl)cc1
14,> 42.3 µg/mL,Cc1sc(NC(=O)C2=COCCO2)c(C(N)=O)c1C
15,> 43.4 µg/mL,Cc1ccc(C(=O)NCC(=O)Nc2ncccc2C)s1
16,> 54.2 µg/mL,CCOCCCNC(=O)c1oc2ccc3c(c2c1C)C(O)CC(C)(C)O3 (centres undefined)
17,> 48.4 µg/mL,COc1ccc(C)cc1S(=O)(=O)NNc1nc(C)cc(C)n1
18,40 µg/mL,COc1ccc(C(=O)C2CCCN(C(=O)c3cnsn3)C2)c(C)c1 (centres undefined)
19,> 49 µg/mL,Cc1cccc(OCC(=O)NCC(=O)N/N=C/c2cccnc2)c1

row,solubility kinetic,SMILES
1,2.3 µg/mL,Cc1ccc(C)c(N2CCN(CC3CCCCC3)CC2)c1
2,60.5 µg/mL,CC1(C(=O)OCC(=O)Nc2ccc(S(=O)(=O)N3CCOCC3)cc2)CC1(Cl)Cl (centres undefined)
3,3 µg/mL,Cc1cc(NC(=O)NC(=O)c2ccccc2F)no1
4,> 66.8 µg/mL,CN(CC(=O)Nc1ccc(N2CCOCC2)cc1)C(=O)c1ccc(CS(C)(=O)=O)cc1
5,0.4 µg/mL,NC(=O)NC(=O)COC(=O)/C=C/c1cccc(Br)c1
6,> 41.3 µg/mL,O=C(O)Cc1ccc(S(=O)(=O)N2CCCC2)s1
7,44.5 µg/mL,CCOC(=O)N1CCN(C(=O)COc2cccc3c2CCN(CC)C3=O)CC1
8,7.9 µg/mL,CCCCC(=O)Nc1ccc(C(=O)N(CC)c2ccccc2C)cc1
9,46.6 µg/mL,O=C(COC(=O)c1cncc(Br)c1)NC1CCCCC1
10,2.7 µg/mL,Cc1ccc(Cn2ccsc2=NC(=O)COC(=O)c2ccc(O)cc2O)cc1
11,4.2 µg/mL,Cc1ccc(NC(=O)Cn2c(=O)oc3ccccc32)cc1C
12,12.4 µg/mL,Cc1cc(C(=O)OCC(=O)NC2CCCC(C)C2C)c(C)o1 (centres undefined)
13,36.1 µg/mL,O=C(OCC(=O)N1CCCC1)c1ccccc1O
14,44.8 µg/mL,Cc1ccc2c(c1)C1CN(C)CCC1N2C(=S)Nc1ccc(OC(F)F)cc1 (centres undefined)
15,> 56.8 µg/mL,CCOC(=O)N1CCN(C(=O)CSc2nc3nc(C)cc(C)n3n2)CC1
16,1.2 µg/mL,O=C(Cc1cccc(F)c1)Nc1ccc2c(c1)CCC2
17,0.5 µg/mL,O=C(/C=C/c1ccc(F)cc1)NC(=S)NC1CCCCC1
18,1.1 µg/mL,CC(C)N(C(=O)COC(=O)c1ccc([N+](=O)[O-])cc1)c1ccccc1
19,6.3 µg/mL,O=C(COC(=O)c1cc2ccccc2cc1O)Nc1ccccc1F

# The remaining lines, values behind:
row,SMILES,solubility kinetic
1,Cc1ccc(CNC(=O)CSc2ccsc2[N+](=O)[O-])cc1,5.3 µg/mL
2,N#Cc1c(N2CCCC2)nsc1-c1ccccc1,0.4 µg/mL
3,Cc1nc(N)[nH]c(=O)c1CC(=O)OCCCl,30.4 µg/mL
4,CN(c1ccccc1)S(=O)(=O)c1cc(C(=O)N2CCN(c3ncccn3)CC2)ccc1Cl,33.5 µg/mL
5,CN1CCN(/N=C/c2ccc(N(C)c3ccccc3)cc2)CC1,> 46.3 µg/mL
6,CN1CCN(C(=O)/C(C#N)=C/c2ccc(F)cc2)CC1.Cl,> 46.5 µg/mL
7,Cc1ccc(/C=C2/SC(=S)N(CCC(=O)N3CCOCC3)C2=O)cc1,< 0.4 µg/mL
8,Cc1ccc(-c2csc(NC(=O)c3ccccc3Cl)c2C(=O)O)cc1,> 55.8 µg/mL
9,O=C(Nc1cccc(S(=O)(=O)N2CCOCC2)c1)C12CC3CC(CC(C3)C1)C2,2.2 µg/mL
10,Cc1ccc(NS(=O)(=O)c2cccc3nsnc23)cc1,36 µg/mL
11,COc1ccc(CN(C)C(=O)CCl)cc1,> 34.2 µg/mL
12,Cc1ccccc1N=C1NC(=O)/C(=C/c2cccnc2)S1,38.1 µg/mL
13,O=C(CN1CCCc2ccccc21)NCCc1ccc(Cl)cc1,19.3 µg/mL
14,O=C(NC1=NCCS1)c1cccc(F)c1,> 33.6 µg/mL
15,CC(=O)c1ccc(Nc2c(C)n(C)n(-c3ccccc3)c2=O)cc1,> 48.2 µg/mL
16,O=C(O)c1ccccc1C(=O)N1CCN(c2ncccn2)CC1,> 46.8 µg/mL
17,Cn1cc([N+](=O)[O-])c(C(=O)NCC(=O)O)n1,> 34.2 µg/mL
18,O=C(COc1ccccc1)NCC1(N2CCCCC2)CCCCC1,48.3 µg/mL
19,O=c1[nH]c(=S)[nH]c2sc3c(c12)CCCCCC3,26.2 µg/mL
20,Cc1ccc(SCCCCN2CCOCC2)cc1.Cl,> 45.3 µg/mL
21,CC(C)N1CN(c2ccccc2)C(=S)N(c2ccccc2)C1,> 46.7 µg/mL

row,SMILES,solubility kinetic
1,O=c1[nH]c(C(F)(F)F)nc2ccc3ccccc3c12,> 39.6 µg/mL
2,CCN(CC)c1cc(C)c(C#N)c2nc3ccccc3n12,2 µg/mL
3,O=c1onc(-c2cccnc2)n1-c1ccccc1F,33 µg/mL
4,Cc1nc(-c2ccc(NC(=O)c3ccc(Br)o3)cc2)cs1,< 0.4 µg/mL
5,O=C(/C=C/c1ccc(S(=O)(=O)N2CCOCC2)cc1)Nc1ccc(F)c(F)c1F,6.9 µg/mL
6,O=C(Cc1cccs1)N1CCN=C1SCc1ccc(F)cc1,26 µg/mL
7,O=[N+]([O-])c1ccc(CN2CC=C(c3ccccc3)CC2)cc1,6.8 µg/mL
8,CC1(C(=O)N2CCN(C(=O)c3ccco3)CC2)CC1(Br)Br (centres undefined),> 63 µg/mL
9,O=c1c2cc(Br)ccc2[nH]c(=S)n1Cc1ccccc1,< 0.4 µg/mL
10,CC(C)NS(=O)(=O)c1ccc(NC(=O)Cc2ccsc2)cc1,> 50.8 µg/mL
11,O=C(NN1CCOCC1)c1ccc(Br)s1,> 43.7 µg/mL
12,COCCSc1ccccc1C(=O)N1CCc2ccccc2C1,> 49.1 µg/mL
13,Cn1c(SCc2ccccc2C#N)nc2ccccc2c1=O,1 µg/mL
14,O=C(CCCN1CCC2(CC1)C(=O)NCN2c1ccccc1)c1ccc(F)cc1,50.1 µg/mL
15,Cn1ccc(C(=O)Nc2ccc3c(c2)OCCO3)n1,> 38.9 µg/mL
16,COc1ccccc1/C=C/c1nc(C#N)c(N(C)C)o1,0.4 µg/mL
17,N#CCn1c(Cc2ccccc2)nc2ccccc2c1=O,> 41.3 µg/mL
18,CCOc1ccccc1N1CN(Cc2ccccc2)CNC1=S,> 49.1 µg/mL
19,CC(c1ccccc1)N1CCN(C(=O)CCl)CC1.Cl (centres undefined),43.3 µg/mL
20,Cc1cccc2cc(/C=C/C(=O)c3ccco3)c(Cl)nc12,3.9 µg/mL
21,Cc1cc(C)c(C2=CSC3=NS(=O)(=O)CCN23)c(C)c1,> 46.3 µg/mL

row,SMILES,solubility kinetic
1,CC(=O)Nc1c(-c2ccccc2)nc2ccc(Cl)cn12,42.7 µg/mL
2,Cc1ccc(OC(C)C(=O)N(C)Cc2ccccc2)c([N+](=O)[O-])n1 (centres undefined),46.9 µg/mL
3,COc1ccc(Cn2c(C)nc3c(c(=O)c4ccccc4n3C)c2=O)cc1,0.7 µg/mL
4,CC(C)(C)C1COc2ccccc2N1C(=O)c1ccccc1Cl (centres undefined),< 0.7 µg/mL
5,CCN1C(=O)c2cccc3c(Cl)ccc1c23,7 µg/mL
6,CC(C)(C)N=C(NS(=O)(=O)c1cccs1)c1ccccc1,> 48.4 µg/mL
7,O=C1CC(=O)N(c2ccc(Cl)cc2)C(=O)N1,> 35.8 µg/mL
8,O=C1CC(c2cccs2)c2ccc3ccccc3c2N1 (centres undefined),< 0.6 µg/mL
9,CC(C)=CC(=O)Nc1ccc(S(=O)(=O)Nc2ccccn2)cc1,46.2 µg/mL
10,Cc1cc(=O)[nH]c(-c2ccc(C(F)(F)F)cc2)n1,> 38.1 µg/mL
11,Cn1cccc1CNC(=S)Nc1ccccc1Cl,36.4 µg/mL
12,O=Cc1cnc2ccccc2c1-c1ccccc1,27.8 µg/mL
13,N/C(=N\S(=O)(=O)c1ccc(Cl)cc1)N1CCOCC1,> 45.6 µg/mL
14,CC(C)(C)C(=O)Nc1ccccc1-c1nc2ccccc2[nH]c1=O,> 48.2 µg/mL
15,Cc1ccc(NC(=O)Nc2cnccn2)cc1,14.4 µg/mL
16,S=C(NC1CCCCC1)N1CCc2[nH]c3ccccc3c2C1,1.3 µg/mL
17,CS(=O)(=O)/C(C#N)=C/c1c(-c2ccccc2)nc2n1CCS2,2.4 µg/mL
18,Cl.O=C(NCCN1CCCC1)c1ccc(Br)cc1,> 50 µg/mL
19,O=C(CCCCCCC(=O)NCc1ccccc1)NCc1ccccc1,1.4 µg/mL
20,O=C(O)CCc1ccc(-c2ccccc2)n1-c1cccc(C(=O)O)c1,> 50.3 µg/mL
